Structures can show the parent of a compound that is named as a salt. Non-standard residues stand in square brackets, D forms with d. Residues, ends and D or L forms follow the SMILES beside them. *: point of attachment. Cha = N[C@@H](CC1CCCCC1)C(=O)O; pNA = O=[N+]([O-])c1ccc(N*)cc1; Phg = N[C@H](C(=O)O)c1ccccc1; Tos = Cc1ccc(S(=O)(=O)*)cc1; 4Abz = Nc1ccc(C(=O)O)cc1; βNA = c1ccc2cc(N*)ccc2c1; Cbz = O=C(OCc1ccccc1)*; Bz = O=C(c1ccccc1)*; Ahx = NCCCCCC(=O)O
Key:
Format in all cases: biochemical
[1] = molecular target: plasma kallikrein (Homo sapiens, UniProt P03952); test: Activity of plasma kallikrein measured with the substrates at constant substrate and enzyme concentrations; conditions: split product
Description: (§1) HCl, were used for the quantitative determination of various enzymes in blood plasma. The determination was carried out by taking advantage of the fact that the split product NH2 -R^2 formed by enzymatic hydrolysis of the substrate has a UV spectrum which differs from that of the substrate and is shifted toward higher wave lengths. Thus, N^α-Bz-Pro-Phe-Arg-pNA^.
(§2) The degree of the enzymatic hydrolysis of the substrate, which is proportional to the quantity of p-nitroaniline formed, can be easily determined by spectrophotometric measurement at 405 nm. […] The conditions are practically the same for the other substrates carrying a p-nitroanilino group as a chromogenic group. The spectrophotometric measurement was, therefore, carried out in all cases at 405 nm.

[2] = molecular target: plasmin (Homo sapiens, UniProt P00747); test: Activity of human plasmin measured with the substrates at constant substrate and enzyme concentrations; conditions: split product
Description: as §1, §2

[3] = molecular target: T1, trypsin (Bos taurus, UniProt P00760); test: Splitting by trypsin with liberation of pNA
T1 sequence (P00760 24-246): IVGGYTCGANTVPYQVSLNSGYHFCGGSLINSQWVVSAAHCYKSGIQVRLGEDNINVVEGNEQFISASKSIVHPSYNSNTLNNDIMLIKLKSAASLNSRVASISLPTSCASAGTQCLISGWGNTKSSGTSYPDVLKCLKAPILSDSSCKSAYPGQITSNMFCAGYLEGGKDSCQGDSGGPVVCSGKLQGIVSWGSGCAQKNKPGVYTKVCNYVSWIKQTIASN
Description: In a 250 ml three-necked flask 16.0 g (47 mmoles) of Cbo-Arg-OH.HCl, dried over P2 O5 in vacuo, were dissolved in 90 ml of absolute HMPTA in a moisture-free atmosphere at 20° C. To the resulting solution there was first added portionwise a solution of 4.74 g (47 mmoles) of Et3 N in 10 ml of HMPTA and then 16.4 g (100 mmoles) of p-nitrophenylisocyanate (100% excess) at room temperature. The reaction mixture was kept at room temperature for 24 hours, whereupon most of the HMPTA was distilled off in vacuo. The residue was extracted several times with 30% AcOH. The residue was discarded. The combined AcOH extracts were further purified by gel filtration on a "Sephadex G-15" column as described in Example 1, paragraph I (e). […] Elementary analysis and calculation from the empirical formula C20 H25 N6 O5 Cl gave the following values: C = 51.29% (51.67%); H = 5.48% (5.42%); N = 17.92% (18.08%); Cl = 7.50% (7.63%).

Chain of plasma kallikrein (P03952 391-638 limits assumed, species assumed): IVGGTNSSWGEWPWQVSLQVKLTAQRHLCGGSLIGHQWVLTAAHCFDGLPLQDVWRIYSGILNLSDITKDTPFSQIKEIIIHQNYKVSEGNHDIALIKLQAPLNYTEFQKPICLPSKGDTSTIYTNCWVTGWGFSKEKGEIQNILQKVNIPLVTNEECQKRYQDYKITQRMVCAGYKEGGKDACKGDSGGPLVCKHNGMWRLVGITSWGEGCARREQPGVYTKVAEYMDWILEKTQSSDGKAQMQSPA
Chain of plasma kallikrein (P03952 20-390 partner limits assumed, species assumed): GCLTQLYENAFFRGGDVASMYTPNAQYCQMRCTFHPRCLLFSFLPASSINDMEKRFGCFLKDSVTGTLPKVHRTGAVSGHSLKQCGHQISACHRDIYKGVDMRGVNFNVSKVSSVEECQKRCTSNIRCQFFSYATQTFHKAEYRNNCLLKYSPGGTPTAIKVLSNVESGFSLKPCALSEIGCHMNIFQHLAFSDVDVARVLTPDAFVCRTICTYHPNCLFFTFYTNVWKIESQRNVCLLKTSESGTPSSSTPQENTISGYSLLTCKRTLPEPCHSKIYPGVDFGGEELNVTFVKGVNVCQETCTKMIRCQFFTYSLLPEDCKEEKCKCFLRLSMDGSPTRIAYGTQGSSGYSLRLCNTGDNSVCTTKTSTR
Chain of plasmin (P00747 581-810 limits assumed): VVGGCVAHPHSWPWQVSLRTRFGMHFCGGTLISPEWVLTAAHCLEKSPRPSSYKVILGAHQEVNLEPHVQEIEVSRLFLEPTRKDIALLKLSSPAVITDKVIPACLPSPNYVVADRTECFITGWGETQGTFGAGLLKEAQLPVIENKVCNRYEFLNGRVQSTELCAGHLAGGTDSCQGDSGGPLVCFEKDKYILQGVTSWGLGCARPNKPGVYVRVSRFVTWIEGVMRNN
Chain of plasmin (P00747 97-580 partner limits assumed): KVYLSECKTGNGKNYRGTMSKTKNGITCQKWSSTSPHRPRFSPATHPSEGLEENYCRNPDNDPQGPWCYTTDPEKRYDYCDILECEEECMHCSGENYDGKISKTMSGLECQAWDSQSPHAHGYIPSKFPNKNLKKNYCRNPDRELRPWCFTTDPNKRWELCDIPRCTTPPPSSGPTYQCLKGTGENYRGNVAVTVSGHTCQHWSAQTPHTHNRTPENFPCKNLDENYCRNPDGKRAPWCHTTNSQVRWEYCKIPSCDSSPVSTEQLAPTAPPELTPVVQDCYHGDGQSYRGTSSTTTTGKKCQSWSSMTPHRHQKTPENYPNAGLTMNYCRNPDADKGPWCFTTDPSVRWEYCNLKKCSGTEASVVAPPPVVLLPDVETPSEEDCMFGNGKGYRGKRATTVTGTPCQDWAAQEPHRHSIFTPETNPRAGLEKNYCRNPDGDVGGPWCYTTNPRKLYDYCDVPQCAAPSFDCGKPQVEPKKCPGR

In the case of `N=C(N)NCCC[C@H](NC(=O)[C@H](Cc1ccccc1)NC(=O)[C@@H]1CCCN1)C(=O)Nc1ccc([N+](=O)[O-])cc1` [Substrate II, H-Pro-Phe-Arg-pNA.2HCl] (H-Pro-Phe-Arg-pNA), the “Quantity of p-nitroaniline (pNA), β-naphthylamine (2-NA) or 4-methoxy-β-naphthylamine (4-MeO-2-NA) released within 1 minute by 1 BAEE unit of plasma kallikrein” value [1] is reported as 28.6 nm and the “Quantity of p-nitroaniline (pNA), β-naphthylamine (2-NA) or 4-methoxy-β-naphthylamine (4-MeO-2-NA) released within 1 minute by one C unit of human plasmin” value (from here on “Quantity of p-nitroaniline … of human plasmin”) [2] is reported as 16.2 nm.

For `CC(=O)N1CCC[C@H]1C(=O)N[C@@H](Cc1ccccc1)C(=O)N[C@@H](CCCNC(=N)N)C(=O)Nc1ccc([N+](=O)[O-])cc1` [Substrate III, N^α -Ac-Pro-Phe-Arg-pNA.HCl] (Ac-Pro-Phe-Arg-pNA), the “Quantity of p-nitroaniline (pNA), β-naphthylamine (2-NA) or 4-methoxy-β-naphthylamine (4-MeO-2-NA) released within 1 minute by 1 BAEE unit of plasma kallikrein” value [1] was 42.3 nm and the “Quantity of p-nitroaniline … of human plasmin” value [2] was 49.1 nm.

With `N=C(N)NCCC[C@H](NC(=O)[C@H](Cc1ccccc1)NC(=O)[C@@H]1CCCN1C(=O)C1CCCCC1)C(=O)Nc1ccc([N+](=O)[O-])cc1` [Substrate V, N^α -cyclohexylcarbonyl-Pro-Phe-Arg-pNA.HCl] the “Quantity of p-nitroaniline (pNA), β-naphthylamine (2-NA) or 4-methoxy-β-naphthylamine (4-MeO-2-NA) released within 1 minute by 1 BAEE unit of plasma kallikrein” value [1] was 154.7 nm and the “Quantity of p-nitroaniline … of human plasmin” value [2] was 158.0 nm.

For `Cc1ccc(C(=O)N2CCC[C@H]2C(=O)N[C@@H](Cc2ccccc2)C(=O)N[C@@H](CCCNC(=N)N)C(=O)Nc2ccc([N+](=O)[O-])cc2)cc1` [Substrate VI, N^α -4-Methyl-Bz-Pro-Phe-Arg-pNA.HCl], the “Quantity of p-nitroaniline (pNA), β-naphthylamine (2-NA) or 4-methoxy-β-naphthylamine (4-MeO-2-NA) released within 1 minute by 1 BAEE unit of plasma kallikrein” value [1] was 78.4 nm and the “Quantity of p-nitroaniline … of human plasmin” value [2] was 142.0 nm.

In the case of `N=C(N)NCCC[C@H](NC(=O)[C@H](Cc1ccccc1)NC(=O)[C@@H]1CCCN1C(=O)CCCCCN)C(=O)Nc1ccc([N+](=O)[O-])cc1` [Substrate VIII, N^α -(ω-Aminocaproyl)-Pro-Phe-Arg-pNA.2HCl] (H-[Ahx]PFR-pNA), the “Quantity of p-nitroaniline (pNA), β-naphthylamine (2-NA) or 4-methoxy-β-naphthylamine (4-MeO-2-NA) released within 1 minute by 1 BAEE unit of plasma kallikrein” value [1] is reported as 59.7 nm and the “Quantity of p-nitroaniline … of human plasmin” value [2] is reported as 256.0 nm.

`Cc1ccc(S(=O)(=O)N2CCC[C@H]2C(=O)N[C@@H](Cc2ccccc2)C(=O)N[C@@H](CCCNC(=N)N)C(=O)Nc2ccc([N+](=O)[O-])cc2)cc1` [Substrate X, N^α-Tos-Pro-Phe-Arg-pNA.HCl] (Tos-Pro-Phe-Arg-pNA) was tested, and the “Quantity of p-nitroaniline (pNA), β-naphthylamine (2-NA) or 4-methoxy-β-naphthylamine (4-MeO-2-NA) released within 1 minute by 1 BAEE unit of plasma kallikrein” value [1] was 88.5 nm and the “Quantity of p-nitroaniline … of human plasmin” value [2] was 80.2 nm.

With `N=C(N)NCCC[C@H](NC(=O)[C@H](Cc1ccccc1)NC(=O)[C@@H]1CCCN1C(=O)Cc1ccc(N)cc1)C(=O)Nc1ccc([N+](=O)[O-])cc1` [Substrate XI, N^α-4-Aminophenyl-acetyl-Pro-Phe-Arg-pNA. 2HCl] the “Quantity of p-nitroaniline (pNA), β-naphthylamine (2-NA) or 4-methoxy-β-naphthylamine (4-MeO-2-NA) released within 1 minute by 1 BAEE unit of plasma kallikrein” value [1] was 72.1 nm and the “Quantity of p-nitroaniline … of human plasmin” value [2] was 230.0 nm.

`N=C(N)NCCC[C@H](NC(=O)[C@H](Cc1ccccc1)NC(=O)[C@@H]1CCCN1C(=O)c1ccc(N)cc1)C(=O)Nc1ccc([N+](=O)[O-])cc1` [Substrate XII, N^α-4-Aminobenzoyl-Pro-Phe-Arg-pNA. 2HCl] (H-[4Abz]PFR-pNA) was tested, and the “Quantity of p-nitroaniline (pNA), β-naphthylamine (2-NA) or 4-methoxy-β-naphthylamine (4-MeO-2-NA) released within 1 minute by 1 BAEE unit of plasma kallikrein” value [1] was 49.2 nm and the “Quantity of p-nitroaniline … of human plasmin” value [2] was 196.0 nm.

In the case of `N=C(N)NCCC[C@H](NC(=O)[C@H](Cc1ccccc1)NC(=O)[C@@H]1CCCN1C(=O)OCc1ccccc1)C(=O)Nc1ccc([N+](=O)[O-])cc1` [Substrate XIII, N^α-Cbo-Pro-Phe-Arg-pNA.HCl] (Cbz-Pro-Phe-Arg-pNA), the “Quantity of p-nitroaniline (pNA), β-naphthylamine (2-NA) or 4-methoxy-β-naphthylamine (4-MeO-2-NA) released within 1 minute by 1 BAEE unit of plasma kallikrein” value [1] is reported as 109.9 nm and the “Quantity of p-nitroaniline … of human plasmin” value [2] is reported as 176.1 nm.

With `N=C(N)NCCC[C@H](NC(=O)[C@H](CC1CCCCC1)NC(=O)[C@@H]1CCCN1C(=O)c1ccccc1)C(=O)Nc1ccc([N+](=O)[O-])cc1` [Substrate XIV, N^α-Bz-Pro-CHA-Arg-pNA.HCl] (Bz-Pro-[Cha]-Arg-pNA) the “Quantity of p-nitroaniline (pNA), β-naphthylamine (2-NA) or 4-methoxy-β-naphthylamine (4-MeO-2-NA) released within 1 minute by 1 BAEE unit of plasma kallikrein” value [1] was 64.5 nm and the “Quantity of p-nitroaniline … of human plasmin” value [2] was 116.0 nm.

For `N=C(N)NCCC[C@H](NC(=O)[C@H](Cc1ccc(O)cc1)NC(=O)[C@@H]1CCCN1C(=O)c1ccccc1)C(=O)Nc1ccc([N+](=O)[O-])cc1` [Substrate XV, N^α-Bz-Pro-Tyr-Arg-pNA.HCl] (Bz-Pro-Tyr-Arg-pNA), the “Quantity of p-nitroaniline (pNA), β-naphthylamine (2-NA) or 4-methoxy-β-naphthylamine (4-MeO-2-NA) released within 1 minute by 1 BAEE unit of plasma kallikrein” value [1] was 71.0 nm and the “Quantity of p-nitroaniline … of human plasmin” value [2] was 73.8 nm.

In the case of `N=C(N)NCCC[C@H](NC(=O)[C@@H](NC(=O)[C@@H]1CCCN1C(=O)c1ccccc1)c1ccccc1)C(=O)Nc1ccc([N+](=O)[O-])cc1` [Substrate XVI, N^α-Bz-Pro-Ph.Gly-Arg-pNA.HCl] (Bz-Pro-[Phg]-Arg-pNA), the “Quantity of p-nitroaniline (pNA), β-naphthylamine (2-NA) or 4-methoxy-β-naphthylamine (4-MeO-2-NA) released within 1 minute by 1 BAEE unit of plasma kallikrein” value [1] is reported as 9.1 nm and the “Quantity of p-nitroaniline … of human plasmin” value [2] is reported as 16.2 nm.

In the case of `N=C(N)NCCC[C@H](NC(=O)[C@H](Cc1ccccc1)NC(=O)[C@@H]1CCCN1C(=O)c1ccccc1)C(=O)Nc1ccc2ccccc2c1` [Substrate XVII, N^α-Bz-Pro-Phe-Arg-2-NA^. HCl] (Bz-Pro-Phe-Arg-βNA), the “Quantity of p-nitroaniline (pNA), β-naphthylamine (2-NA) or 4-methoxy-β-naphthylamine (4-MeO-2-NA) released within 1 minute by 1 BAEE unit of plasma kallikrein” value [1] is reported as 44.1 nm and the “Quantity of p-nitroaniline … of human plasmin” value [2] is reported as 95.4 nm.

For `COc1cc(NC(=O)[C@H](CCCNC(=N)N)NC(=O)[C@H](Cc2ccccc2)NC(=O)[C@@H]2CCCN2C(=O)c2ccccc2)cc2ccccc12` [Substrate XVIII, N^α-Bz-Pro-Phe-Arg-4-MeO-2-NA^. HCl], the “Quantity of p-nitroaniline (pNA), β-naphthylamine (2-NA) or 4-methoxy-β-naphthylamine (4-MeO-2-NA) released within 1 minute by 1 BAEE unit of plasma kallikrein” value [1] was 39.8 nm and the “Quantity of p-nitroaniline … of human plasmin” value [2] was 79.7 nm.

`N=C(N)NCCC[C@H](NC(=O)OCc1ccccc1)C(=O)Nc1ccc([N+](=O)[O-])cc1` [XIIIa, Cbo-Arg-pNA.HCl] was tested, and the splitting by trypsin [3] was “split by trypsin with liberation of pNA”.

With “N^α -4-Aminomethyl-cyclohexylcarbonyl-Pro-Phe-Arg-pNA.2HCl [Substrate IX]” the “Quantity of p-nitroaniline (pNA), β-naphthylamine (2-NA) or 4-methoxy-β-naphthylamine (4-MeO-2-NA) released within 1 minute by 1 BAEE unit of plasma kallikrein” value [1] was 65.1 nm and the “Quantity of p-nitroaniline … of human plasmin” value [2] was 600.0 nm.

“N^α -Caproyl-Pro-Phe-Arg-pNA.HCl [Substrate IV]” was tested, and the “Quantity of p-nitroaniline (pNA), β-naphthylamine (2-NA) or 4-methoxy-β-naphthylamine (4-MeO-2-NA) released within 1 minute by 1 BAEE unit of plasma kallikrein” value [1] was 108.3 nm and the “Quantity of p-nitroaniline … of human plasmin” value [2] was 100.0 nm.

— patent publication US4016042A, “Substrate for the quantitative determination of enzymes” (Pentapharm A.G., priority 1974, dated 1977)
